Data: publication PMC9931709, “Uphill energy transfer mechanism for photosynthesis in an Antarctic alga” (Nature Communications, 2023)

Tests used:
[1] = target: T1, Pc-frLHC (Prasiola crispa far-red light-harvesting Chl-binding protein complex) (Prasiola crispa, UniProt C0HLU5); test: cryo-EM structure, […] A; biochemical pigment analysis; settings: native pigment, pH 6.5
T1 construct: native complex purified from thylakoids of thalli harvested in Antarctica; beta-DDM; homo-undecamer, subunit about 29 kDa
T1 sequence (C0HLU5 45-307, one chain of several): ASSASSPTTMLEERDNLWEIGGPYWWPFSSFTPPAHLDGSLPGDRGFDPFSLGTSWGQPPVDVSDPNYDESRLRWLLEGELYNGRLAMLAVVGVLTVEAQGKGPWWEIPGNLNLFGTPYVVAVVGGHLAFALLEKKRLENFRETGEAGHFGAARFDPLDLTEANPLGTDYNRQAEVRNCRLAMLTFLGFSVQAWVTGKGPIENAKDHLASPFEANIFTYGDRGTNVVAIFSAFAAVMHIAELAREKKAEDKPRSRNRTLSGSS

[2] = target: Prasiola crispa far-red light-harvesting Chl-binding protein complex (Pc-frLHC) subunit (Prasiola crispa); test: cryo-EM structure; single-particle cryo-EM, C11 symmetry imposed; 6 mg protein/ml in 25 mM MES pH 6.5, 0.015% β-DDM, 0.5 M betaine; 3.13 Å

Compound: CC1=C[C@H](O)CC(C)(C)[C@H]1/C=C/C(C)=C/C=C/C(C)=C/C=C/C=C(C)/C=C/C=C(/C=C/C1=C(C)C[C@@H](O)CC1(C)C)CO [loroxanthin]
- cryo-EM structure, 3.13 A; biochemical pigment analysis ([1]; L2 site): Pc-frLHC binds only two carotenoids: violaxanthin (vio) and loroxanthin (loro)

Compound: CC(/C=C/C=C(C)/C=C/[C@@]12O[C@]1(C)C[C@@H](O)CC2(C)C)=C\C=C\C=C(C)\C=C\C=C(C)\C=C\[C@@]12O[C@]1(C)C[C@@H](O)CC2(C)C [violaxanthin]
- cryo-EM structure, 3.13 A; biochemical pigment analysis ([1]; L1 site): Pc-frLHC binds only two carotenoids: violaxanthin (vio) and loroxanthin (loro)

Compound: Prasiola crispa far-red light-harvesting Chl-binding protein complex (Pc-frLHC) subunit (natural protein)
- stoichiometry N [2]: 11
